Experiment [1] concerns rat ileum. The experiment can be described thus: Contractility of isolated rat GI segments ex vivo (myobath organ bath), response to PK1.
The target in experiment [2] is T1, GPR73 (PK1 receptor) (Homo sapiens, UniProt Q8TCW9).
T1 construct: expressed in transfected cells; host or cells: HEK 293
The experiment in a line: PK1 functional assay: screening for PK1 antagonists on the FLIPR (calcium dye) in HEK 293 GPR73 expressing cells. Type of experiment: cell-based. Conditions: for IC50 / inhibition at 10 µM / Ca^2+ Mobilization % Inh @10 μM: HEK 293 GPR73 (PK1 receptor) expressing cells, FLIPR; for IC50: PK1 ligand at EC50, read-out: Ca^2+ Mobilization IC50; for inhibition at 10 µM: HEK293, 10 μM compound, read-out: Ca^2+ Mobilization % Inh @10 μM; for Ca^2+ Mobilization % Inh @10 μM: 10 μM compound. The method, then: At a time of 24 h prior to running the assay, in cell culture media (DMEM containing high Glucose and L-glutamine, 10% FBS, 1% Pen/Streptomycin, 1% Sodium Pyruvate, 20 mM HEPES, Zeocin 200 mg/L), 100 μL of 1.3*10^6/ml HEK 293 GPR73 (PK1 receptor) expressing cells were plated in a 96 well poly-d-lysine coated plate (Costar), and incubated at 37° C. and 5% CO2. On the day in which the assay was run, the media was removed and 200 μL of 5× Calcium Plus Dye (Molecular Devices) which was previously resuspended with 200 mL of assay buffer [HBSS w/Ca^2+ and Mg^2+ w/o phenol red, 20 mM HEPES, 0.1% BSA, 10 mL probenecid (710 mg probenecid in 5 mL of 1N NaOH, to which was then added 5 mL HBSS containing 20 mM HEPES)] was added to each well of the 96-well plate. The plate was incubated at 37° C. and 5% CO2 for 30 min in dark. The plate was removed and allowed to reach RT for 15 min in the dark. The assay was then run on the FLIPR. […] Baseline is described as the amount of relative fluorescence read when buffer alone is added to cells. Baseline was subtracted from all wells. Percent of control was calculated as follows: (Baseline subtracted well value is divided by baseline subtracted max value)*100. Percent inhibition is 100 minus the percent of control value.
IC50 values were calculated using GraphPad Prism.
Table 2 includes data generated from the PK1 functional assay described in Example 2.

The target in experiment [3] is T2, basolateral Na+-K+-2Cl- co-transporter (Rattus norvegicus, UniProt E9PTX9).
T2 sequence (E9PTX9 1-1203): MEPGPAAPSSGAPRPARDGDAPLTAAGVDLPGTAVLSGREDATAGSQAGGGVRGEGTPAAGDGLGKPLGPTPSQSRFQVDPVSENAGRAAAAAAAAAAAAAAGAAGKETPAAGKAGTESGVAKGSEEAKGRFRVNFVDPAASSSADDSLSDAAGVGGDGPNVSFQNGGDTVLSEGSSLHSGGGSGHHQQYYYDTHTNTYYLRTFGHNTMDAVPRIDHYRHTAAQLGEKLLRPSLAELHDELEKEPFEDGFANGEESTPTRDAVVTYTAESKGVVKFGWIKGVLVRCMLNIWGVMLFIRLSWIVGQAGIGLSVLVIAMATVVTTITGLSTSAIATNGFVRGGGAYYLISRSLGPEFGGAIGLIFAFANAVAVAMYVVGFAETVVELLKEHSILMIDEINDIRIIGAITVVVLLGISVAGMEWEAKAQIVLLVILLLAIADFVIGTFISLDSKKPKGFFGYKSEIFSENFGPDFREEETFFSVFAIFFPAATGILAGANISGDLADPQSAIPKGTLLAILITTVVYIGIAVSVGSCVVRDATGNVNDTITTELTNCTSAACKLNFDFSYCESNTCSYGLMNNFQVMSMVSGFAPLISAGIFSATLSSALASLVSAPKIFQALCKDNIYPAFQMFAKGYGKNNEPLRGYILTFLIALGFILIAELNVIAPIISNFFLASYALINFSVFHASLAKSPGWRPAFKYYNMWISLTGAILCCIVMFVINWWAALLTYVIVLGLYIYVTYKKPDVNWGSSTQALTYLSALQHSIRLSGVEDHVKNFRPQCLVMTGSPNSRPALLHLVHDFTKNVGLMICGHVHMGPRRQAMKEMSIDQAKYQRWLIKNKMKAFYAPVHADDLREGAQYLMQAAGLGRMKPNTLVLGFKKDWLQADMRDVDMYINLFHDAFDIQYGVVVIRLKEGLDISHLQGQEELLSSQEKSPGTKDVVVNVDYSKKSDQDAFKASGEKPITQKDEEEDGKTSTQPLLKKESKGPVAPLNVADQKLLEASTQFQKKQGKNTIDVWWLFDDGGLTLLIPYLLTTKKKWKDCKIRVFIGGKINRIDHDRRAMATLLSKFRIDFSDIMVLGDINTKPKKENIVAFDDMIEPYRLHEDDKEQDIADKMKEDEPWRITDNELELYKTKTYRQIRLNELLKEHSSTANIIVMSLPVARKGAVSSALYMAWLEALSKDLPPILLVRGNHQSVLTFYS
Conditions: bumetanide 500 μM. An excerpt: Methodology. The basic methodology for Using-type ion flux chambers used in these studies was the same as that described in detail above with the following modifications to the experimental protocol. To determine the mechanism of action of the pro-secretory action of PK1 on the epithelium, three separate approaches were utilized to abolish electrogenic chloride ion or bicarbonate ion transport across the epithelium. […] The second approach involved replacement of all chloride ions in the physiological buffer solution used to maintain living tissues in the Using chambers, thus substituting a chloride-free KRB solution by an equimolar substitution of isethionate and acetate salts for the chloride salts listed in the standard KRB recipe above. The third approach involved replacement of all bicarbonate ions in the physiological buffer solution, thus substituting a bicarbonate-free KRB solution by an equimolar substitution of Piperazine-N,N′-bis(2-ethanesulfonic acid) (PIPES) for the bicarbonate salt, and addition of 1 mM acetazolamide, a blocker of intracellular carbonic anhydrase, to prevent bicarbonate production by the enterocyte.

The results in this text go back to patent publication US8188081B2, “Methods of treating inflammation using prokineticin 1 receptor antagonists” (Janssen Pharmaceutica, NV, priority 2005, dated 2012).

Values joined by “and” are separate entries in the source; they are usually repeats but may differ in a detail not shown here. Equal entries are not always repeated. “Also recorded” adds a separate entry of the source. Some results are limits rather than exact numbers.

T1 sequence (Q8TCW9 whole entry, species assumed): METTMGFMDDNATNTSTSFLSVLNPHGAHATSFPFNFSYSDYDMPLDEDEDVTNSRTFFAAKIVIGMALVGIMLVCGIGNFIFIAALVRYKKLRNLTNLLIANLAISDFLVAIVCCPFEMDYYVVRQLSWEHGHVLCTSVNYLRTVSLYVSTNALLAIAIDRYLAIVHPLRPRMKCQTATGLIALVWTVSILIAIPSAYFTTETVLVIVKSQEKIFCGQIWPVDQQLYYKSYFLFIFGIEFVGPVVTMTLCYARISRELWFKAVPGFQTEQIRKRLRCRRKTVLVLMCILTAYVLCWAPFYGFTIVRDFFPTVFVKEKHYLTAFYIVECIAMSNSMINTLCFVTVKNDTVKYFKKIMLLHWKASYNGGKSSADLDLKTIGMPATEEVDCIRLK

For `CN1[C@@H]2CC[C@H]1C[C@@H](OC(=O)C(CO)c1ccccc1)C2` (stereo partly shown) [Atropine, reference compound], in experiment [1], the “effect on the early component of the PK1-evoked contractile response” value was “attenuate”.
As usually defined, the IC50 is the point on the concentration scale where inhibition reaches its midpoint. For `N=C(N)NCCNc1nc(=O)n(Cc2ccccc2)c(=O)n1Cc1ccc(F)cc1` [Cpd 1], in experiment [2], the 50% inhibitory concentration (IC50) was > 10 µM.
On the same count and under the same terms, next, `N=C(N)NCCNc1nc(=O)n(Cc2ccccc2)c(=O)n1Cc1cccc(C(F)(F)F)c1` [Cpd 7]: > 10 µM.
Take `COc1ccc(Cn2c(NCCONC(=N)N)nc(=O)n(Cc3ccccc3)c2=O)cc1` [Cpd 10]: in experiment [2], the inhibition at 10 µM amounted to 33% and the IC50 is > 10 µM.
On to `N=C(N)NCCNc1nc(=O)n(Cc2ccccc2)c(=O)n1Cc1ccncc1` [Cpd 11], for which the IC50 in experiment [2] was > 10 µM.
In the case of `COc1ccc(Cn2c(NCCNC(=N)N)nc(=O)n(Cc3ccccc3OC)c2=O)cc1` [Cpd 21], the IC50 in experiment [2] was > 10 µM.
The same measure, in the same setting: next, `COc1ccc(Cn2c(N[C@H]3CCCC[C@@H]3NC(=N)N)nc(=O)n(Cc3ccc(Cl)c(Cl)c3)c2=O)cc1` [Cpd 43]: > 10 µM.
Take `COc1ccc(Cn2c(NCCNC(=N)NCCc3ccccc3)nc(=O)n(Cc3ccc(Cl)c(Cl)c3)c2=O)cc1` [Cpd 65]: in experiment [2], the “Ca^2+ Mobilization % Inh @10 μM” value came out at 88%.
With `N=C(N)NCCNc1nc(=O)n(Cc2ccc(F)cc2)c(=O)n1Cc1ccc([N+](=O)[O-])cc1` [Cpd 87], the IC50 in experiment [2] is > 10 µM.
On the same count and under the same terms, next, `COc1ccc(Cn2c(NCCNC(=N)N)nc(=O)n(Cc3cccc(N)c3)c2=O)cc1` [Cpd 96]: > 10 µM; `COc1ccc(Cn2c(NCCNC(=N)N)nc(=O)n(Cc3cccc(C#N)c3)c2=O)cc1` [Cpd 98]: > 10 µM.
With `COc1ccc(Cn2c(NCCNC(=N)N)nc(=O)n(Cc3ccc(C(=O)O)cc3)c2=O)cc1` [Cpd 101, 4-[4-(2-Guanidino-ethylamino)-3-(4-methoxy-benzyl)-2,6-dioxo-3,6-dihydro-2H-[1,3,5]triazin-1-ylmethyl]-benzoic acid], in experiment [2], the IC50 was > 10 µM.
Regarding `COc1ccc(Cn2c(NCCN(C(=N)N)c3ccccn3)nc(=O)n(Cc3ccc(F)cc3)c2=O)cc1` [Cpd 104, N-{2-[5-(4-Fluoro-benzyl)-1-(4-methoxy-benzyl)-4,6-dioxo-1,4,5,6-tetrahydro-[1,3,5]triazin-2-ylamino]-ethyl}-N-pyridin-2-yl-guanidine], the “Ca^2+ Mobilization % Inh @10 μM” value in experiment [2] (10 µM) is 99%.
With `COc1ccc(Cn2c(NCCNC(=N)NCCc3ccccn3)nc(=O)n(Cc3ccc(F)cc3)c2=O)cc1` [Cpd 105], the “Ca^2+ Mobilization % Inh @10 μM” value in experiment [2] turned out to be 100%.
As for `COc1ccc(Cn2c(NCCNC(=N)N)nc(=O)n(CC(C)(C)C)c2=O)cc1` [Cpd 123], the IC50 in experiment [2] is > 10 µM.
On the same count and under the same terms, next, `COc1ccc(Cn2c(N[C@@H](C)[C@H](C)NC(=N)N)nc(=O)n(Cc3ccc(F)cc3)c2=O)cc1` [Cpd 136]: > 10 µM.
As to `COc1ccc(Cn2c(N[C@H](C)[C@@H](C)NC(=N)N)nc(=O)n(Cc3ccc(F)cc3)c2=O)cc1` [Cpd 137], the inhibition at 10 µM in experiment [2] came out at 98%.
Still for that read-out and setting: next, `COc1ccc(Cn2c(=O)nc(NCCNC(=N)N)n(Cc3ccc(O)cc3)c2=O)cc1` [Cpd 143, N-{2-[1-(4-Hydroxy-benzyl)-5-(4-methoxy-benzyl)-4,6-dioxo-1,4,5,6-tetrahydro-[1,3,5]triazin-2-ylamino]-ethyl}-guanidine]: 101%.
With `COc1ccc(Cn2c(N[C@H]3CCCC[C@@H]3NC(=N)N)nc(=O)n(Cc3ccc(Cl)c(Cl)c3)c2=O)cc1` [JNJ 28611921], the “activity at the PK1 receptor” value in experiment [2] (cellular assay) is “lack significant activity; also recorded: not active”.
With `NC1=N[C@H](O)[C@H]2[C@H]3O[C@]4(O)O[C@@H]([C@@H](O)[C@@]2(N1)[C@@H]4O)[C@]3(O)CO` [Tetrodotoxin, reference compound], the “effect on the early component of the PK1-evoked contractile response” value in experiment [1] is given as “attenuate”.
On to `CCCCNc1cc(C(=O)O)cc(S(N)(=O)=O)c1Oc1ccccc1` [bumetanide, Bumetanide], for which the “effect on baseline G” value in experiment [3] is recorded as “did not significantly change”. In addition, the “change in baseline Isc after addition to the serosal bathing solution” value in experiment [3] (n=5, not significantly different from DMSO vehicle) is given as −7.1+/−8.6 μA/cm^2. For the same molecule, the “attenuation of the PK1-evoked increase in Isc” value in experiment [3] (serosal) is listed as > 90%.
As to “N-Benzoyl-N-{2-[5-(4-fluoro-benzyl)-1-(4-methoxy-benzyl)-4,6-dioxo-1,4,5,6-tetrahydro-[1,3,5]triazin-2-ylamino]-ethyl}-guanidine [Cpd 134]”, in experiment [2], the “Ca^2+ Mobilization % Inh @10 μM” value is recorded as 97, 97%; the IC50 is 0.019 µM and 0.028 µM.
Take “N-{2-[5-(3,4-Dichloro-benzyl)-1-(4-methoxy-benzyl)-4,6-dioxo-1,4,5,6-tetrahydro-[1,3,5]triazin-2-ylamino]-ethyl}-N-isopropyl-guanidine [Cpd 58]”: in experiment [2] (10 µM), the “Ca^2+ Mobilization % Inh @10 μM” value is 102% and 99%.
In the case of “N-{2-[5-(4-Fluoro-benzyl)-1-(4-methoxy-benzyl)-4,6-dioxo-1,4,5,6-tetrahydro-[1,3,5]triazin-2-ylamino]-ethyl}-N-(2-fluoro-phenyl)-guanidine [Cpd 118]”, the “Ca^2+ Mobilization % Inh @10 μM” value in experiment [2] (10 µM) is 98% and 102%. In experiment [2], the IC50 was 0.006 µM.
“N-{2-[5-(4-Fluoro-benzyl)-1-(4-methoxy-benzyl)-4,6-dioxo-1,4,5,6-tetrahydro-[1,3,5]triazin-2-ylamino]-ethyl}-N-(4-fluoro-phenyl)-guanidine [Cpd 119]”: in experiment [2] (10 µM), the “Ca^2+ Mobilization % Inh @10 μM” value is 102% and 99%. Further, in experiment [2], the IC50 was 0.006 µM and 0.012 µM.
As to “N-{2-[5-(4-Fluoro-benzyl)-1-(4-methoxy-benzyl)-4,6-dioxo-1,4,5,6-tetrahydro-[1,3,5]triazin-2-ylamino]-ethyl}-N-amino-guanidine [Cpd 93]”, in experiment [2], the “Ca^2+ Mobilization % Inh @10 μM” value stood at 92% and the IC50 came out at 0.227 µM.
With “N-{2-[5-Benzyl-1-(4-methoxy-benzyl)-4,6-dioxo-1,4,5,6-tetrahydro-[1,3,5]triazin-2-ylamino]-ethyl}-oxyguanidine [Cpd 27]”, the “Ca^2+ Mobilization % Inh @10 μM” value in experiment [2] was 55%.
